In test [1] the target is T1, Tyrosinase (Homo sapiens, UniProt P14679).
T1 sequence (P14679 whole entry): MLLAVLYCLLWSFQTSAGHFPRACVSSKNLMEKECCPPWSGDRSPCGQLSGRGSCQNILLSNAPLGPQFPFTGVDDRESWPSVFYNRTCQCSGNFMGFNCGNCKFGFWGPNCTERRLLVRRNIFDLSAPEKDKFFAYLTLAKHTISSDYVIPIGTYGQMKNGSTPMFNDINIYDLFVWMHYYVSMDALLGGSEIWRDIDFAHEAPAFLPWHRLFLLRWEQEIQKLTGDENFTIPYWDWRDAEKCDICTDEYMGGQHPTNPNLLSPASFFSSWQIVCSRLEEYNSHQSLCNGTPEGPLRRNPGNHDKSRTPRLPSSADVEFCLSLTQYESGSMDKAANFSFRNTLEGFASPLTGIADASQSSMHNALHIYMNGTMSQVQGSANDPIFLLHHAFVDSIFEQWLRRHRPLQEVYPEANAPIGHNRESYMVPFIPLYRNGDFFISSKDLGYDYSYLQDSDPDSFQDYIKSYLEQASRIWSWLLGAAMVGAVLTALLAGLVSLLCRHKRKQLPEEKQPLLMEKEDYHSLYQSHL
The class given is subcellular, MNT-1, Lysates.

The target in test [2] is T2, Tyrosinase (Streptomyces antibioticus, UniProt P07524).
T2 sequence (P07524 whole entry): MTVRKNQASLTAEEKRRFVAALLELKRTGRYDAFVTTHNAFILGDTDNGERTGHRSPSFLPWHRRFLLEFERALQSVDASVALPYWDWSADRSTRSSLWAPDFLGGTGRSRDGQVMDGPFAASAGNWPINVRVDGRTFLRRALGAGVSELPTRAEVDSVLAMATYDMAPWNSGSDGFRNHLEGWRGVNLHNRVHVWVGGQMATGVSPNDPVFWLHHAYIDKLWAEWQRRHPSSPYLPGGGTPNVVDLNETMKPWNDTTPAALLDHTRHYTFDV
Description: Competitive inhibition of Streptomyces antibioticus tyrosinase using L-DOPA as substrate by Michelis-Menten based analysis

Another test addresses Mushroom tyrosinase (Agaricus bisporus, UniProt O42713+Q00024+C7FF04+C7FF05).
Test [3] concerns the target T1, Tyrosinase. The class given is cell-based, MNT-1.
Description: Inhibition of tyrosinase in human MNT-1 cells assessed as inhibition of melanin production measured after 96 hrs
For test [4], the target named is T1, Tyrosinase.
Description: Competitive inhibition of human recombinant tyrosinase expressed in Sf9 cells using L-DOPA as substrate by Michelis-Menten based analysis
Test [5] has as its target T3, Tyrosinase (Mus musculus, UniProt P11344).
T3 sequence (P11344 whole entry): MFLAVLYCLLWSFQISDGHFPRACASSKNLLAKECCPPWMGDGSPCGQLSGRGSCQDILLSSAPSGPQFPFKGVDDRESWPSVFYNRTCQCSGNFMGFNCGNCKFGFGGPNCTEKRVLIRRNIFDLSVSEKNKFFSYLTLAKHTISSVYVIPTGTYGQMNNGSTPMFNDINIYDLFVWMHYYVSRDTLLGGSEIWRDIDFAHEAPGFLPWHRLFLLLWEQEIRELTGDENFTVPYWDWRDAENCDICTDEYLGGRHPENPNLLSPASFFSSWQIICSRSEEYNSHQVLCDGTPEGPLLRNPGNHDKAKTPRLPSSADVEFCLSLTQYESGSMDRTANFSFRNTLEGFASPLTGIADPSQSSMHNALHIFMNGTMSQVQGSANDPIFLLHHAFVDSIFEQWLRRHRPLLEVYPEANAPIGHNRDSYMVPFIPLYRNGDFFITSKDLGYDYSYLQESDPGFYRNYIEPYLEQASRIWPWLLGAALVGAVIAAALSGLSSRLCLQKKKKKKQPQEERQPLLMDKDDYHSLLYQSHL
Description: Inhibition of tyrosinase in mouse B16-F10 cells assessed as inhibition of melanin production measured after 72 hrs

Description for Mushroom tyrosinase: Competitive inhibition of Agaricus bisporus tyrosinase using L-DOPA as substrate by Michelis-Menten based analysis

`Cl.N[C@H](Cc1ccc(=O)n(O)c1)C(=O)O`: the IC50 (in general, the midpoint of a concentration-inhibition curve) was 277 µM at Tyrosinase [1] and greater than 400 µM at Tyrosinase [3]. Besides, the inhibitory constant (Ki) – broadly, a measure of affinity in units of concentration, obtained from inhibition or displacement – came out at 16 µM on Tyrosinase [2], 12.8 µM at Mushroom tyrosinase and 76 µM on Tyrosinase [4].

`O=c1ccc(CO)cn1O`: the Ki at Tyrosinase [2] was 4.1 µM; on Mushroom tyrosinase it was 1.2 µM; at Tyrosinase [4] it was 7.5 µM. The IC50 on Tyrosinase [5] was found to be 61.2 µM.

With `Cl.N[C@@H](Cc1ccc(=O)n(O)c1)C(=O)O`, the values for the IC50 at Tyrosinase [1] and against Tyrosinase [3] were 73.6 µM and greater than 400 µM, respectively. In addition, the inhibitory constant (Ki) on Tyrosinase [2] is 39 µM; at Mushroom tyrosinase, 12.5 µM; at Tyrosinase [4], 8 µM.

`Cl.NC(Cc1ccc(=O)n(O)c1)C(=O)O` (racemic): the results for the IC50 against Tyrosinase [1], on Tyrosinase [3] and against Tyrosinase [5] were 90 µM, greater than 400 µM and 10 µM, respectively. Besides, the Ki at Tyrosinase [2] was found to be 42 µM; on Mushroom tyrosinase, 1.2 µM; at Tyrosinase [4] it was 6 µM.
